# Data as given in US5494922A, “Allophanic acid derivatives” (Zeneca Limited, priority 1993, dated 1996).
# Counter-ions that a name gives are not always drawn.
# What was measured:
# [1] = target: T1, human, citrated, platelet-rich plasma (Homo sapiens, UniProt P05106+P08514); assay: test (a): inhibition of ADP stimulated platelet aggregation in human, citrated, platelet-rich plasma; assay type: cell-based; conditions: read-out: pA2 (converted)
# T1 construct: aggregating human, citrated, platelet-rich plasma; endogenous in cells; host or cells: human platelets in citrated platelet-rich plasma
# Text: (i) aggregating human, citrated, platelet-rich plasma by addition of adenosine diphosphate (ADP) so as to generate a dose-response curve;
# (ii) generating a dose-response curve for ADP stimulated platelet aggregation in the presence of increasing amounts of a test compound (generally in the range 10^-5 M to 10^-10 M); and
# (iii) calculating a pA2 value indicating potency of platelet aggregation inhibition for the test compound, averaged over several concentrations, from the calculated 50% response value for ADP aggregation in the presence and absence of the test compound.
# [2] = target: T2, purified human platelet fibrinogen receptor (GPIIb/IIIa) (Homo sapiens, UniProt P05106+P08514); assay: test (b): GPIIb/IIIa ELISA, inhibition of biotinylated fibrinogen binding; conditions: 50% inhibition of biotinylated fibrinogen binding to GPIIb/IIIa
# T2 construct: Glycoprotein IIb/IIIa is isolated from human platelet lysates; from tissue
# Protocol: (i) Preparation of human platelet lysates
# Platelet rich plasma (prp) is harvested by centrifugation (1000 rpm, 15 minutes) of whole blood anticoagulated with acid citrate dextrose (trisodium citrate 85 mM, citric acid 70 mM, d-glucose 110 mM) 1 part to 6 parts blood. Prostacyclin (PGI2, 1 μM) is added to the prp before centrifugation (2400 rpm, 15 min) and the resulting pellet is resuspended in modified Tyrodes' solution (NaCl 130 mM, […], NaHCO3, 12 mM, NaH2 PO4 0.5 mM, MgCl2 1 mM, CaCl2 20 mM, Glucose 12 mM, HEPES 5 mM) containing bovine serum albumin 3.5 g/L, PGI2 1 μM and hirudin 0.5 U/ml. The platelet suspension is centrifuged (2400 rpm, 15 minutes) and the resultant pellet resuspended in 500 μl of lysis buffer (octyl glucoside 50 mM, HEPES 10 mM, NaCl 150 mM, CaCl2 1 mM, MgCl2 1 mM, PMSF 1 mM, NEM 10 mM, leupeptin 0.1 mM), agitated at 4° C. for 15 minutes then centrifuged at 24000 rpm, 15 minutes. The supernatant is stored at 4° C. and the pellet re-suspended in 500 μl of lysis buffer. […]
# 96 well microtitre plates are coated with 100 μl purified human platelet fibrinogen receptor (GPIIb/IIIa) diluted in coating buffer (Tris-HCl 20 mM, NaCl 150 mM, CaCl2 1 mM, pH 7.4) and left overnight at 4° C. […] Colour is allowed to develop for 10-15 minutes before optical densities are read at 650 nm. […]
# T1 sequence (P08514 32-887 limits assumed): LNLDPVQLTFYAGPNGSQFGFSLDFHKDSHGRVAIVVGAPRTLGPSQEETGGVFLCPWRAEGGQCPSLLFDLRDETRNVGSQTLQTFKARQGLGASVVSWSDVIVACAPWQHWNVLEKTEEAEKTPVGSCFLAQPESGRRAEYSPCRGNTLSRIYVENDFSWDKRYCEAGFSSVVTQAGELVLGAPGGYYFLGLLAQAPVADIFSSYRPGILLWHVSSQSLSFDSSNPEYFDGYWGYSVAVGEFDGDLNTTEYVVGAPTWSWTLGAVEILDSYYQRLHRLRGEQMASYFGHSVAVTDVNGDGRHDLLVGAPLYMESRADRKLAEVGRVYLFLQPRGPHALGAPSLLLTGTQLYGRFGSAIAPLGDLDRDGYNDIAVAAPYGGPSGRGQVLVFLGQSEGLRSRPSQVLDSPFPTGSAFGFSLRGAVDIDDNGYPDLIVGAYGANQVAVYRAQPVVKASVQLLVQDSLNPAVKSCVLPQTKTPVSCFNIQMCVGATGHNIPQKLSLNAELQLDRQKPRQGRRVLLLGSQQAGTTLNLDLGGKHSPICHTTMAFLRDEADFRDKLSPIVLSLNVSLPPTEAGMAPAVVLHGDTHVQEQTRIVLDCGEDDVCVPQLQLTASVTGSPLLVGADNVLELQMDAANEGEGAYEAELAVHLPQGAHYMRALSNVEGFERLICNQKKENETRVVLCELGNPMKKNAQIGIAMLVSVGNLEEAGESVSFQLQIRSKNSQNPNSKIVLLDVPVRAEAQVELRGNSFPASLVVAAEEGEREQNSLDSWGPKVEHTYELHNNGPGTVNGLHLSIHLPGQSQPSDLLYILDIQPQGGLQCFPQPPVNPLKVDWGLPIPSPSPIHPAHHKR
# T1 sequence (P08514 891-1039 limits assumed): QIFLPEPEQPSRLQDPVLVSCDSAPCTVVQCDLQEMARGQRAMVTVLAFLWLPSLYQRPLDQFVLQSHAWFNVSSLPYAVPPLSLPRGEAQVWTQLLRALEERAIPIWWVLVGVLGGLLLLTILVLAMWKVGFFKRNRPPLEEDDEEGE
# T1 sequence (P05106 27-788): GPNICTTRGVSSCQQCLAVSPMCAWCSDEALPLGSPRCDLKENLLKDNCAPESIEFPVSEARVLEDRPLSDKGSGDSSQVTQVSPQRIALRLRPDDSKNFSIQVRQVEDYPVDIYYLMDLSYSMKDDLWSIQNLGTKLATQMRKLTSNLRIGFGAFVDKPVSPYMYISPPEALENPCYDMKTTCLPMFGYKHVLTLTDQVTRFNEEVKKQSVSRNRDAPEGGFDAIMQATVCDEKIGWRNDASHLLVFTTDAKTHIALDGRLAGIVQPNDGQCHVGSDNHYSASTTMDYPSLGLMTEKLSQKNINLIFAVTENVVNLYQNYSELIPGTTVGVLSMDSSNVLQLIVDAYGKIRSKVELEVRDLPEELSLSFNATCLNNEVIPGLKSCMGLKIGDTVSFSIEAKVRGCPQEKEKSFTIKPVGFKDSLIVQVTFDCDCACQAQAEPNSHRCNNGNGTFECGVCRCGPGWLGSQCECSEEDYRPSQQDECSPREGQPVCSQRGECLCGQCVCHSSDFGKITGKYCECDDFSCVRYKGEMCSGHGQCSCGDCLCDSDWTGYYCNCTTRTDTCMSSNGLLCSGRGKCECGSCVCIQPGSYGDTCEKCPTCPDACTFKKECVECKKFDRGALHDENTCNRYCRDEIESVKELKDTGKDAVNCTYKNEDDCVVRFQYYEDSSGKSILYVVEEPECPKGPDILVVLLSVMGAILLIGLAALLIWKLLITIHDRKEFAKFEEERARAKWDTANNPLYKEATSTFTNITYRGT
# T2 sequence (P08514 32-887 limits assumed): as the sequence (P08514 32-887 limits assumed) above
# T2 sequence (P08514 891-1039 limits assumed): as the sequence (P08514 891-1039 limits assumed) above
# T2 sequence (P05106 27-788): as the sequence (P05106 27-788) above
structure (smiles),measurement,setting,value
"COC(=O)COc1ccc(C(=O)NC(=O)Nc2ccc(C(=N)N)cc2)cc1 [Example 1, Methyl 4-[4-(4-amidinophenyl)allophoyl]phenoxyacetate, acetate salt]",Kb,[1],0.0316 µM
same,IC50,[2],0.126 µM
"N=C(N)c1ccc(NC(=O)NC(=O)c2ccc(OCC(=O)O)cc2)cc1 [Example 2, 4-[4-(4-Amidinophenyl)allophanoyl]phenoxyacetic acid]",Kb,[1],0.0251 µM
same,IC50,[2],0.0251 µM
